In patent publication US12622918B2, “Formulations and dosages for administering a compound that inhibits MCL1 protein” (Amgen Inc., priority 2019, dated 2026):

Key:
[1] = tested on: SU-OHL-6; assay: Cell viability (CellTiterGlo), SU-OHL-6; type: cell-based; details: SU-OHL-6, NHL; 24 hours; 10% FBS; read-out: AMS 176 IC50
[2] = tested on: Adult patients with relapsed or refractory AML; assay: Dose-escalation study in relapsed or refractory AML, data cutoff May 17, 2019; type: in vivo
Method: Escalating doses started at 60 mg/m^2. For dose levels ≥180 mg/m^2, a lead-in dose of 120 mg/m^2 was implemented during week 1. Primary objectives included the evaluation of safety, tolerability, and pharmacokinetics. The secondary objective was a preliminary evaluation of efficacy, assessed using ELN criteria. Exploratory endpoints included pharmacodynamic evaluation of MCL-1 inhibition in circulating AML blasts.

[3] = tested on: HEL 92.1.7; assay: Cell viability (CellTiterGlo), HEL 92.1.7; type: cell-based; details: Homo sapiens; HEL 92.1.7, AML; 24 hours; 10% FBS; read-out: AMS 176 IC50
[4] = molecular target: Mouse MCL1 (Mus musculus, UniProt P97287); assay: Cell-free TR-FRET BIM-binding assay, Mouse MCL1; details: BIM-binding partner Mouse MCL1; n = 3
[5] = molecular target: Monkey MCL1 (Macaca fascicularis, UniProt A0A2K5W0Y7); assay: Cell-free TR-FRET BIM-binding assay, Monkey MCL1; details: read-out: IC50 (Mean ± SD) of AMG 176 With Respect to Binding; BIM-binding partner Monkey MCL1; n = 3
[6] = tested on: KMS-28-PE; assay: Cell viability (CellTiterGlo), KMS-28-PE; type: cell-based; details: Multiple myeloma, 24 hours, 10% FBS, read-out: AMS 176 IC50
[7] = tested on: subjects with relapsed/refractory multiple myeloma; assay: Phase 1 FIH study, multiple myeloma part 1b (QW); type: in vivo, human
Method: In part 1a, subjects were enrolled across 8 cohorts, with doses ranging from 30 to 240 mg/m^2 QD2. In part 1b, subjects were enrolled across 2 cohorts, with doses of 120/180-mg/m^2 or 120/240-mg/m^2.

[8] = Plasma concentration in OPM2-Luc tumor-bearing mice; type: in vivo; details: 60 mg/kg oral gavage; female athymic nude mice
Method: (§1) Activation of the pro-apoptotic pore-forming protein BAK and proteolytic cleavage of the cysteine-aspartic acid protease caspase 3 (hallmarks of the induction of apoptosis) in MCL1-dependent OPM2-Luc multiple myeloma tumor cells served as a PD assay. Female athymic nude mice were injected with 5×10^6 cells in 0.1 mL subcutaneously (SC). […] Mice were euthanized 2, 4, 8, 12, and 24 hours postdose (n=3/group), terminal plasma samples were collected for PK analysis, and tumors were halved and snap frozen in liquid nitrogen for PK and molecular analyses. Tumor lysates were prepared for evaluation of BAK activation and caspase 3 cleavage using an electrochemiluminescence immunoassay. Tumors treated with vehicle (25% HPβCD, pH 8) served as a negative control and indicated the baseline level of apoptosis.

[9] = tested on: OPM2-Luc orthotopic tumors; assay: OPM2-Luc multiple myeloma orthotopic model, AMG 176 plus carfilzomib; type: in vivo; details: AMG 176 20 mg/kg orally once daily; carfilzomib 3 mg/kg IV twice weekly; day 4 until day 20; female NSG mice
Method: On day 0, female NSG mice were injected IV with 1×10^6 OPM2-Luc human OPM2-Luc multiple myeloma tumor cells transfected with the firefly luciferase gene.

[10] = tested on: Karoas620; assay: Cell viability (CellTiterGlo), Karoas620; type: cell-based; details: Karoas620, Multiple myeloma; 24 hours; 10% FBS; read-out: AMS 176 IC50
[11] = tested on: BAK; assay: BAK activation in OPM2-Luc tumor xenografts (PD); type: in vivo, mice; details: for BAK activation: 2-, vs vehicle p<0.05
Method: as §1

[12] = tested on: U26681; assay: Cell viability (CellTiterGlo), U26681; type: cell-based; details: U26681, Multiple myeloma; 24 hours; 10% FBS; read-out: AMS 176 IC50
[13] = tested on: U937; assay: Cell viability (CellTiterGlo), U937; type: cell-based; details: Homo sapiens, U-937; U937, NHL; 24 hours; 10% FBS; read-out: AMS 176 IC50
[14] = tested on: KMM1; assay: Cell viability (CellTiterGlo), KMM1; type: cell-based; details: KMM-1; KMM1, Multiple myeloma; 24 hours; 10% FBS; read-out: AMS 176 IC50
[15] = molecular target: T1, MCL1-BAK protein-protein interaction (Homo sapiens, UniProt Q07820); assay: MCL1-BAK protein-protein interaction PD assay, HEK 293M MCL1(1-327)-Luc/BAK-Luc Matrigel plug model in mice; type: in vivo; details: for inhibition of MCL1-BAK protein-protein interaction, as measured by luciferase activity: 2-, vs vehicle p<0.0025, female athymic nude mice
T1 construct: human MCL1 encoding amino acids 1-327 and full-length human BAK; expressed in transfected cells; host or cells: HEK 293M cells, stably transfected, in Matrigel plugs in female athymic nude mice
Excerpt: The inhibition of MCL1-BAK protein-protein interaction was used as a pharmacodynamics (PD) assay in HEK 293M cells stably transfected so as to express the N-terminal fragment of human MCL1 encoding amino acids 1-327 and full-length human BAK, linked to the N- and C-terminal fragments of firefly luciferase, respectively (interaction between MCL1 [1-327] and BAK results in the complementation of the C- and N-terminal fragments of luciferase and the formation of active luciferase).

[16] = TEAEs occurring in ≥2 patients, N = 11

T1 sequence (Q07820 1-327): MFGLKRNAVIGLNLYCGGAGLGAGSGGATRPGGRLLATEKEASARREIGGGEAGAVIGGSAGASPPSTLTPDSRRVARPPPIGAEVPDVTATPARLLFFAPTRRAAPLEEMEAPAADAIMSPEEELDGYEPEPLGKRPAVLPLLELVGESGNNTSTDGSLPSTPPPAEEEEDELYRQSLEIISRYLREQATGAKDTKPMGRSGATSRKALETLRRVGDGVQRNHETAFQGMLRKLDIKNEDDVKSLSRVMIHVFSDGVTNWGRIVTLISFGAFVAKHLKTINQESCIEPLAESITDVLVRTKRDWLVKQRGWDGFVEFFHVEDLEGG
Sequence of Mouse MCL1 (P97287 whole entry): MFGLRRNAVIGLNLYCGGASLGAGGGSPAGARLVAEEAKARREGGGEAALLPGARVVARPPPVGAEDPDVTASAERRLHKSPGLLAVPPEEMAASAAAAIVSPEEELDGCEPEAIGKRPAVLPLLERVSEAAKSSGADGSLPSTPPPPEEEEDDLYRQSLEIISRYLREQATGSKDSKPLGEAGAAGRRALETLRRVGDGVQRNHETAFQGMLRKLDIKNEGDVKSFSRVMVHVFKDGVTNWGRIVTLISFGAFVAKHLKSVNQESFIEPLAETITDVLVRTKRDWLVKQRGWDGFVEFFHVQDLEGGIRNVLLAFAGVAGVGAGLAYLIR
Sequence of Monkey MCL1 (A0A2K5W0Y7 1-346): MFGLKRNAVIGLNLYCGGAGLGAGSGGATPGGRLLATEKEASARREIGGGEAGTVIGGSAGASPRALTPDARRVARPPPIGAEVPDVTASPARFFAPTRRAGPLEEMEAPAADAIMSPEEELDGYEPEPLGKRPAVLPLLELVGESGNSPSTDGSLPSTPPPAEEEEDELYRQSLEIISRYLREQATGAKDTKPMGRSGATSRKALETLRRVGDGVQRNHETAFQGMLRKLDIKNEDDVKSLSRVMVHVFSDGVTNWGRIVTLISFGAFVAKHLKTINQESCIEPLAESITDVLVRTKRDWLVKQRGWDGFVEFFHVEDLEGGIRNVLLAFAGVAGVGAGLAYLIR

## CO[C@H]1/C=C/C[C@H](C)[C@@H](C)S(=O)(=O)NC(=O)c2ccc3c(c2)N(C[C@@H]2CC[C@H]21)C[C@@]1(CCCc2cc(Cl)ccc21)CO3 [AMG 176]
[1]
  IC50: 165 nM
[2]; 60-180 mg/m^2
  plasma exposures versus dose: increased in a dose-related manner
[2]; AML, 11 patients
  Treatment-related AEs, patients: 46%
  fatal adverse events: No fatal adverse events were observed
  grade ≥3 TEAEs, patients: 73%
  grade ≥3 anemia: 18%
  grade ≥3 treatment-related AEs, patients: 18%
  nausea, any grade: 36%
  peripheral edema, any grade: 36%
[2]; AML, 11 patients, 60-180 mg/m^2 IV
  TEAEs of any grade, patients: 91%
[2]; Grade ≥3 TEAEs occurring in ≥2 patients, N = 11
  Anemia, Grade ≥3: 2 (18.2) n (%)
[2]; IV infusion over a minimum of 2 hours
  time of maximum plasma concentrations: close to the end of intravenous infusion
[2]; Patients (N = 11)
  All TEAEs: 10 (90.9) n (%)
  TEAEs Fatal: 0 n (%)
  TEAEs Grade ≥3: 8 (72.7) n (%)
  TEAEs Serious: 8 (72.7) n (%)
[2]; [16]
  Anemia: 2 (18.2) n (%)
  Hypokalemia: 2 (18.2) n (%)
  Hypomagnesemia: 2 (18.2) n (%)
  Increased blood bilirubin level: 2 (18.2) n (%)
  Nausea: 4 (36.4) n (%)
  Peripheral edema: 4 (36.4) n (%)
  Vomiting: 2 (18.2) n (%)
[2]; at the data cutoff date
  maximum tolerated dose: not yet reached
[2]; monotherapy, dose levels evaluated
  safety, tolerability, and pharmacokinetic profile: acceptable
[2]; patient achieving CRi, 3 hours postinfusion
  pharmacodynamic impact in peripheral blood AML blasts: release of the proapoptotic protein Bax and activation of effector caspase 3
[3]
  IC50: 5990 nM
[4]
  IC50: 49.8 nM
[5]
  IC50: 0.182 nM
[6]
  IC50: 12000 nM
[7]; MM part 1b
  Grade 3 adverse events, subjects: 83%
  adverse events considered related to AMG 176, subjects: 83 %/a
  adverse events leading to discontinuation of investigational product: no adverse event led to discontinuation
  fatal adverse events: no fatal adverse events occurred
  grade 4 adverse events, subjects: 17%
  hypertension of grade 3 or higher: 33%
  neutropenia of grade 3 or higher: 67%
  serious adverse events: No serious adverse events were reported
[7]; MM part 1b QW, 6 subjects
  adverse events, subjects: 83%
[7]; MM part 1b, any grade
  diarrhea, subjects: 33%
  fatigue, subjects: 33%
  hypertension, subjects: 33%
  nausea, subjects: 50%
  neutropenia, subjects: 67%
[7]; MM part 1b, 6 subjects, preliminary
  exposures (Cmax and AUC) versus dose: generally increased with increasing doses
[8]
  time point of peak AMG 176 plasma concentration: 4 h
[9]
  TGI (tumor burden): 86%
[10]
  IC50: 487 nM
[11]; 30 mg/kg oral gavage, 4-, and 8-hour time points
  BAK activation: Statistically significant BAK activation
[11]; 60 mg/kg oral gavage
  time point of greatest BAK activation: 4 h
[11]; 60 mg/kg oral gavage, 4-, 8-, and 12-hour time points
  BAK activation: Statistically significant BAK activation
[11]; OPM2-Luc tumor xenografts, summary statement
  induction of multiple markers of apoptosis, including BAK activation and caspase 3 cleavage: dose-dependent induction
[12]
  IC50: 8220 nM
[13]
  IC50: 474 nM
[14]
  IC50: 407 nM
[15]; 3 mg/kg, 8-, 12-, and 24-hour time points
  inhibition of MCL1-BAK protein-protein interaction, as measured by luciferase activity: Statistically significant inhibition
[15]; 10 mg/kg, 4-, 8-, and 12-hour time points
  inhibition of MCL1-BAK protein-protein interaction, as measured by luciferase activity: Statistically significant inhibition
[15]; 30 mg/kg, 4-, 8-, 12-, and 24-hour time points
  inhibition of MCL1-BAK protein-protein interaction, as measured by luciferase activity: Statistically significant inhibition
[15]; summary statement
  inhibition of the interaction between human MCL1 and human BAK in vivo: dose-dependent inhibition
